According to article PMC11568265, “Exploring peptide dendrimers for intestinal lymphatic targeting: formulation and evaluation of peptide dendrimer conjugated liposomes for enhancing the oral bioavailability of Asenapine maleate” (Scientific Reports, 2024):
Structures can show the parent of a compound that is named as a salt. Marks after values point to notes of the source that are not given here.

Columns and labels:
Raji B cells = system: Raji B cells; parameters: method as in PMID 30874464, PMID 32228915, doi:10.1016/j.jddst.2022.103275; conditions: highest concentration of ASPM tested; cited from earlier work
Caco-2 cells = system: Caco-2 cells; parameters: method as in PMID 30874464, PMID 32228915, doi:10.1016/j.jddst.2022.103275; conditions: highest concentration of ASPM tested; cited from earlier work
[1] = Oral pharmacokinetic study in rats; format: in vivo, Sprague–Dawley (SD) rats; conditions: SD rats, 5 mg/kg ASPM orally, n = 6
Method: (§1) Preclinical ex vivo and in vivo studies were conducted on male Sprague–Dawley (SD) rats (200–250 g). The SD rats were bred at the Central Animal Research Facility, Manipal Academy of Higher Education, Manipal, India. The SD rats were exposed to a light–dark cycle (12 h each) and had free access to food and water. The rats used in the study were housed in cages at 25 ± 2 °C. All the experimental procedures and animal handling were carried out following the CCSEA (Committee for Control and Supervision of Experiments on Animals, Ministry of Fisheries, Animal Husbandry and Dairying, Government of India) guidelines, and in accordance with ARRIVE guidelines as well. All the animal experimental protocols were approved by the Institutional Animal Ethical Committee, Kasturba Medical College, MAHE, Manipal (Approval No: IAEC/KMC/49/2020). An attempt was made to use the minimum number of rats in an ethically responsible manner.
Overnight-fasted SD rats were divided into 3 groups (n = 6). Group I, ASPM solution; Group II, LP-ASPM; Group III, LP-PD-2. All the groups received ASPM at a dose of 5 mg/kg body weight orally. Blood was drawn from the retro-orbital sinus at different time points between 0 and 48 h in tubes containing disodium EDTA. Blood was centrifuged at 5000 rpm for 10 min, and the clear plasma from the supernatant layer was collected and stored at -80 °C until analysis. The amount of ASPM in the samples was analysed by RP-HPLC. The detailed bioanalytical method development for the quantification of ASPM in rat plasma is given in Supplementary information; Section S3; Table S4; Figure S7. Pharmacokinetic parameters were calculated using PK Solutions 2.0™ (Summit Research Services, Montrose, Colorado).

[2] = system: L-DOPA-carbidopa-induced hyper locomotor activity; experiment: Psychostimulant-induced hyperactivity model, locomotor activity (LMA) test; format: in vivo, Sprague–Dawley (SD) rats; conditions: L-DOPA-carbidopa-treated rats, ASPM dose 5 mg/kg p.o.
Method: as §1
The pharmacodynamic study was performed using an induced locomotor activity (LMA) test with a psychostimulant-induced hyperactivity model. The ability of the optimized formulation to reverse hyperactivity in rats was studied. […] A digital Actophotometer (Ikon Instruments, New Delhi, India) was used to assess LMA at 5 min intervals at 1, 2 and 3 h. The LMA was assessed after 1 h of L-DOPA-carbidopa administration in group II. ASPM was administered after 30 min of L-DOPA-carbidopa administration, and LMA was noted after 30 min of ASPM administration in groups III, IV and V.

[3] = Ex vivo drug permeation, everted ileum sac model; format: in vitro ADME, Sprague–Dawley (SD) rats; conditions: male, Sprague-Dawley, pH 7.4, everted rat ileum sac
Method: as §1
The absorption of the drug through the ileum portion of the small intestine was determined by an ex vivo drug permeation study using an everted ileum sac model. Overnight-fasted SD rats were sacrificed humanely, and the small intestine was isolated (≈ 10 cm). The isolated ileum segment was carefully everted and pushed completely over a capillary tube. The ileum was then tied between the cannulated parts of the U-shaped glass tube, which was used as a perfusion apparatus. The perfusion apparatus was then placed in a beaker containing 450 mL of Ringer’s solution (pH 7.4). The medium was stirred using magnetic beads at 100 rpm and 37 °C. Plain ASPM solution/liposomal dispersion was added to the beaker. The samples were withdrawn from the cannulated arm of the U tube at predetermined time points of 1, 2 and 3 h, and the same volume of the withdrawn sample was replaced by the addition of fresh Ringer’s solution. The amount of drug absorbed was calculated by analysing the samples using HPLC[22].

[4] = cited from earlier work
[5] = parameters: method as in PMID 30669881; conditions: pure ASPM dispersion, intestinal fluid (phosphate buffer pH 6.8), within 180 min; cited from earlier work
[6] = male, Sprague-Dawley, rat, plasma, po

Question: Which results are given for CN1CC2c3ccccc3Oc3ccc(Cl)cc3C2C1 (stereo not shown) [ASPM, Asenapine maleate]?
Answer: cells remaining viable (Raji B cells): more than 80%; cells remaining viable (Caco-2 cells): more than 80%; t1/2 ([1]; 5 mg/kg): 25.52 ± 2.15 h; half-life ([1]; male, Sprague-Dawley, rat, plasma, po, 5 mg/kg): 25.2 ± 2.15 h; AUC(0-inf) [1, 6]: 3640 ± 347 ng·h/mL; AUC(0-t) [1, 6]: 2660 ± 221 ng·h/mL; Cmax [1, 6]: 131 ± 7.01 ng/mL; MRT [1, 6]: 36 ± 3.16 h; Tmax [1, 6]: 1 h; k el [1, 6]: 7.53e-06 s⁻¹; Locomotor counts ([2]; 1 h): 121 ± 17*^$; Locomotor counts ([2]; 2 h): 118 ± 18*^$; Locomotor counts ([2]; 3 h): 110 ± 15*^$; Papp at 1 h ([3]; 1 h): 291 ± 26 ×10⁻⁶ cm/s; Papp at 2 h ([3]; 2 h): 231 ± 31 ×10⁻⁶ cm/s; Papp at 3 h ([3]; 3 h): 206 ± 30 ×10⁻⁶ cm/s; bioavailability ([4]; marketed fast-dissolving sublingual tablet, ref 7 (printed at next sentence)): 35%; oral bioavailability ([4]; oral administration): < 2%; drug release [5]: more than 90%
